From US7781473B2, “Heterocycle derivatives useful as selective androgen receptor modulators (SARMS)” (J & J Pharmaceutical Research & Development, LLC., priority 2004, dated 2010)

System: castrated male Sprague Dawley rats
Assay: Ventral Prostate and Levator ani Weight in vivo Assay (agonist, stimulation of tissue weight)
Parameters: species or system rat; key: A compound was designated as agonist active if it produced greater than or equal to 20% stimulation of levator ani at 30 mg/kg; they are listed herein as “inactive” as they did not meet the specified criteria defined above; A designation of “toxic” indicates that the compound exhibited toxicity in the rats tested
Conditions: mature castrated rats, test compound oral gavage up to 30 mg/kg once daily for 14 days, vehicle = 0%, testosterone propionate = 100%; for % levator ani Stimulation: levator ani wet weight; for % Prostate Stimulation: ventral prostate wet weight
Method: Ventral Prostate and Levator ani Weight in vivo Assay
Mature (150 to 200 g) castrated male Sprague Dawley rats (Charles River) were treated once daily for 14 days with test compound (usually administered by oral gavage at up to the desired dosage, up to 30 mg/kg in a volume of 1 mL, in 30% cyclodextrin or 0.5% methylcellulose vehicle), or with testosterone propionate (administered subcutaneously by injection at the nape of the neck at 5 mg/kg, in a volume of 0.1 mL in sesame oil), or with vehicle (1 mL of 30% cyclodextrin or 0.5% methylcellulose, given orally). On the fifteenth day, the rats were euthanized by asphyxiation in carbon dioxide. Ventral prostates and levator ani muscles were removed and their wet weights determined.
Test compound activity was determined as the percent stimulation of tissue weight, with the vehicle-treated control group set to zero percent and the testosterone alone-treated control group set to 100%. A compound was designated as agonist active if it produced greater than or equal to 20% stimulation of levator ani at 30 mg/kg.
Representative compounds of the present invention were tested according to the procedure described, with results as listed in Table 10 below.

| SMILES | % levator ani Stimulation | % Prostate Stimulation |
| --- | --- | --- |
| CSCCC1=NNC(C)(C(=O)Nc2ccc(C#N)c(C(F)(F)F)c2)C1 (stereo not drawn) [compound 79] | inactive | inactive |
| CC1(C(=O)Nc2ccc(C#N)c(C(F)(F)F)c2)CC(C2CCCC2)=NN1 (stereo not drawn) [compound 78] | inactive | inactive |
| CC1(C(=O)N(C(=O)C(F)(F)F)c2ccc(C#N)c(C(F)(F)F)c2)CC(C(F)(F)F)=NN1 (stereo not drawn) [Compound 115, 3-Methyl-5-trifluoromethyl-3,4-dihydro-2H-pyrazole-3-carboxylic acid (4-cyano-3-trifluoromethyl-phenyl)-(2,2,2-trifluoro-acetyl)-amide] | inactive | inactive |
| CC1(C(=O)Nc2ccc(C#N)c(C(F)(F)F)c2)CC(C(F)(F)C(F)(F)F)=NN1 (stereo not drawn) [Compound 98, 3-Methyl-5-pentafluoroethyl-3,4-dihydro-2H-pyrazole-3-carboxylic acid (4-cyano-3-trifluoromethyl-phenyl)-amide] | active | active |
| CC1CC(C(=O)Nc2ccc(C#N)c(C(F)(F)F)c2)(C(F)(F)F)N=N1 (stereo not drawn) [Compound 114, 5-Methyl-3-trifluoromethyl-4,5-dihydro-3H-pyrazole-3-carboxylic acid (4-cyano-3-trifluoromethyl-phenyl)-amide] | inactive | inactive |
| CC1(C(=O)NCc2ccc(S(C)(=O)=O)cc2)CC(C(F)(F)F)=NN1 (stereo not drawn) [Compound 27, 3-Methyl-5-trifluoromethyl-3,4-dihydro-2H-pyrazole-3-carboxylic acid 4-methanesulfonyl-benzylamide] | inactive | inactive |
